Source: ChEMBL document CHEMBL1201862, “PubChem BioAssay data set” (2004)
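All cell lines were grown in 96-well plates and treated with compound for 48 hours. GI50: concentration for 50% inhibition of growth.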 Activity calls are given as the source filed them. No stated cut-off is given here; in the data, active = GI50 up to about 1.1 µM and inactive = higher.

Columns and labels:
Assay in all cases: NCI anticancer screen, dose series, 48 h
786-0 = test system: 786-0
A498 = test system: A498
A549 = test system: A549
ACHN = test system: ACHN
BT-549 = test system: BT-549
CAKI-1 = test system: CAKI-1
CCRF-CEM = test system: CCRF-CEM
COLO 205 = test system: COLO 205
DU-145 = test system: DU-145
EKVX = test system: EKVX
HCC 2998 = test system: HCC 2998
HCT-116 = test system: HCT-116
HCT-15 = test system: HCT-15
HL-60 = test system: HL-60
HOP-62 = test system: HOP-62
HOP-92 = test system: HOP-92
HT-29 = test system: HT-29
Hs-578T = test system: Hs-578T
IGROV-1 = test system: IGROV-1
K562 = test system: K562
KM12 = test system: KM12
LOX IMVI = test system: LOX IMVI
M14 = test system: M14
MCF7 = test system: MCF7
MDA-MB-231 = test system: MDA-MB-231
MDA-MB-435 = test system: MDA-MB-435
MDA-N = test system: MDA-N
Malme-3M = test system: Malme-3M
NCI-H226 = test system: NCI-H226
NCI-H23 = test system: NCI-H23
NCI-H460 = test system: NCI-H460
NCI-H522 = test system: NCI-H522
OVCAR-3 = test system: OVCAR-3
OVCAR-4 = test system: OVCAR-4
OVCAR-5 = test system: OVCAR-5
OVCAR-8 = test system: OVCAR-8
PC-3 = test system: PC-3
RPMI-8226 = test system: RPMI-8226
RXF 393 = test system: RXF 393
SF-268 = test system: SF-268
SF-295 = test system: SF-295
SF-539 = test system: SF-539
SK-MEL-28 = test system: SK-MEL-28
SK-MEL-2 = test system: SK-MEL-2
SK-OV-3 = test system: SK-OV-3
SN12C = test system: SN12C
SNB-19 = test system: SNB-19
SNB-75 = test system: SNB-75
SR = test system: SR
SW-620 = test system: SW-620
T47D = test system: T47D
TK-10 = test system: TK-10
U-251 = test system: U-251
UACC-257 = test system: UACC-257
UACC-62 = test system: UACC-62
UO-31 = test system: UO-31
NCI/ADR-RES = test system: NCI/ADR-RES
SK-MEL-5 = test system: SK-MEL-5
MOLT-4 = test system: MOLT-4

For CN(C(=O)c1ccccc1)C1CCCC(=O)CC1 (centres undefined), the GI50 (786-0) was > 100 µM (inactive), the GI50 (A498) was > 100 µM (inactive) and the GI50 (A549) was > 100 µM (inactive). The GI50 (ACHN) was > 100 µM (inactive), the GI50 (BT-549) was > 100 µM (inactive) and the GI50 (CAKI-1) was > 100 µM (inactive). The GI50 (CCRF-CEM) was > 100 µM (inactive), the GI50 (COLO 205) was > 100 µM (inactive) and the GI50 (DU-145) was > 100 µM (inactive). The GI50 (EKVX) was > 100 µM (inactive), the GI50 (HCC 2998) was > 100 µM (inactive) and the GI50 (HCT-116) was > 100 µM (inactive). The GI50 (HCT-15) was greater than 100 µM, the GI50 (HL-60) was > 100 µM (inactive) and the GI50 (HOP-62) was > 100 µM (inactive). For the same molecule, the GI50 (HOP-92) was > 100 µM (inactive), the GI50 (HT-29) was > 100 µM (inactive) and the GI50 (Hs-578T) was > 100 µM (inactive). For the same molecule, the GI50 (IGROV-1) was > 100 µM (inactive), the GI50 (K562) was > 100 µM (inactive) and the GI50 (KM12) was > 100 µM (inactive). The GI50 (LOX IMVI) was > 100 µM (inactive), the GI50 (M14) was > 100 µM (inactive) and the GI50 (MCF7) was > 100 µM (inactive). For the same molecule, the GI50 (MDA-MB-231) was > 100 µM (inactive), the GI50 (MDA-MB-435) was > 100 µM (inactive) and the GI50 (MDA-N) was > 100 µM (inactive). The GI50 (Malme-3M) was > 100 µM (inactive), the GI50 (NCI-H226) was > 100 µM (inactive) and the GI50 (NCI-H23) was > 100 µM (inactive). The GI50 (NCI-H460) was > 100 µM (inactive), the GI50 (NCI-H522) was > 100 µM (inactive) and the GI50 (OVCAR-3) was > 100 µM (inactive). For the same molecule, the GI50 (OVCAR-4) was > 100 µM (inactive), the GI50 (OVCAR-5) was > 100 µM (inactive) and the GI50 (OVCAR-8) was > 100 µM (inactive). The GI50 (PC-3) was > 100 µM (inactive), the GI50 (RPMI-8226) was > 100 µM (inactive) and the GI50 (RXF 393) was > 100 µM (inactive). The GI50 (SF-268) was > 100 µM (inactive), the GI50 (SF-295) was > 100 µM (inactive) and the GI50 (SF-539) was > 100 µM (inactive). For the same molecule, the GI50 (SK-MEL-28) was > 100 µM (inactive), the GI50 (SK-MEL-2) was > 100 µM (inactive) and the GI50 (SK-OV-3) was > 100 µM (inactive). For the same molecule, the GI50 (SN12C) was > 100 µM (inactive), the GI50 (SNB-19) was > 100 µM (inactive) and the GI50 (SNB-75) was > 100 µM (inactive). The GI50 (SR) was > 100 µM (inactive), the GI50 (SW-620) was > 100 µM (inactive) and the GI50 (T47D) was > 100 µM (inactive). For the same molecule, the GI50 (TK-10) was > 100 µM (inactive), the GI50 (U-251) was > 100 µM (inactive) and the GI50 (UACC-257) was > 100 µM (inactive). The GI50 (UACC-62) was > 100 µM (inactive) and the GI50 (UO-31) was > 100 µM (inactive).

With Cc1ccc(-c2c(C#N)c(N)nc3c2CCS(=O)(=O)c2ccccc2-3)cc1 the GI50 (786-0) was 44.2 µM (inactive), the GI50 (A498) was > 100 µM (inactive) and the GI50 (A549) was > 100 µM (inactive). For the same molecule, the GI50 (ACHN) was 52.4 µM (inactive), the GI50 (BT-549) was 95.3 µM (inactive) and the GI50 (CAKI-1) was > 100 µM (inactive). The GI50 (COLO 205) was > 100 µM (inactive), the GI50 (DU-145) was 74.6 µM (inactive) and the GI50 (HCC 2998) was > 100 µM (inactive). The GI50 (HCT-116) was > 100 µM (inactive), the GI50 (HCT-15) was greater than 100 µM and the GI50 (HOP-92) was 34.1 µM (inactive). For the same molecule, the GI50 (HT-29) was > 100 µM (inactive), the GI50 (Hs-578T) was 58.1 µM (inactive) and the GI50 (IGROV-1) was 34.1 µM (inactive). For the same molecule, the GI50 (K562) was > 100 µM (inactive), the GI50 (KM12) was > 100 µM (inactive) and the GI50 (LOX IMVI) was > 100 µM (inactive). For the same molecule, the GI50 (MDA-MB-231) was > 100 µM (inactive), the GI50 (MDA-MB-435) was > 100 µM (inactive) and the GI50 (MDA-N) was > 100 µM (inactive). For the same molecule, the GI50 (Malme-3M) was 39.4 µM (inactive), the GI50 (NCI-H226) was 66.1 µM (inactive) and the GI50 (NCI-H23) was > 100 µM (inactive). For the same molecule, the GI50 (NCI-H460) was > 100 µM (inactive), the GI50 (NCI-H522) was > 100 µM (inactive) and the GI50 (NCI/ADR-RES) was 85.9 µM (inactive). For the same molecule, the GI50 (OVCAR-4) was 40.6 µM (inactive), the GI50 (OVCAR-8) was 41 µM (inactive) and the GI50 (PC-3) was 78.9 µM (inactive). For the same molecule, the GI50 (RPMI-8226) was > 100 µM (inactive), the GI50 (SF-268) was 83.4 µM (inactive) and the GI50 (SK-MEL-28) was 72.4 µM (inactive). The GI50 (SK-MEL-2) was 49.1 µM (inactive), the GI50 (SK-MEL-5) was 66.7 µM (inactive) and the GI50 (SN12C) was 81.8 µM (inactive). The GI50 (SNB-19) was 50.7 µM (inactive), the GI50 (SNB-75) was 20.6 µM (inactive) and the GI50 (SW-620) was > 100 µM (inactive). For the same molecule, the GI50 (T47D) was 55.5 µM (inactive), the GI50 (TK-10) was 59.7 µM (inactive) and the GI50 (U-251) was 68.2 µM (inactive). For the same molecule, the GI50 (UACC-257) was 65 µM (inactive), the GI50 (UACC-62) was 57.3 µM (inactive) and the GI50 (UO-31) was 90.8 µM (inactive).

For O=C(Cc1ccccc1)NN1C(=O)/C(=C\c2ccc(O)cc2)S/C1=N\c1ccccc1, the GI50 (786-0) was > 100 µM (inactive), the GI50 (A498) was > 100 µM (inactive) and the GI50 (A549) was > 100 µM (inactive). The GI50 (ACHN) was > 100 µM (inactive), the GI50 (BT-549) was > 100 µM (inactive) and the GI50 (CCRF-CEM) was > 100 µM (inactive). For the same molecule, the GI50 (COLO 205) was > 100 µM (inactive), the GI50 (DU-145) was > 100 µM (inactive) and the GI50 (EKVX) was > 100 µM (inactive). The GI50 (HCC 2998) was > 100 µM (inactive), the GI50 (HCT-116) was > 100 µM (inactive) and the GI50 (HCT-15) was greater than 100 µM. The GI50 (HL-60) was > 100 µM (inactive), the GI50 (HOP-62) was > 100 µM (inactive) and the GI50 (HOP-92) was 21.6 µM (inactive). The GI50 (HT-29) was > 100 µM (inactive), the GI50 (Hs-578T) was > 100 µM (inactive) and the GI50 (IGROV-1) was > 100 µM (inactive). For the same molecule, the GI50 (K562) was > 100 µM (inactive), the GI50 (KM12) was > 100 µM (inactive) and the GI50 (M14) was > 100 µM (inactive). For the same molecule, the GI50 (MCF7) was 84.1 µM (inactive), the GI50 (MDA-MB-231) was > 100 µM (inactive) and the GI50 (MDA-MB-435) was > 100 µM (inactive). The GI50 (MDA-N) was > 100 µM (inactive), the GI50 (MOLT-4) was 95.5 µM (inactive) and the GI50 (NCI-H226) was > 100 µM (inactive). For the same molecule, the GI50 (NCI-H23) was > 100 µM (inactive), the GI50 (NCI-H460) was > 100 µM (inactive) and the GI50 (NCI/ADR-RES) was > 100 µM (inactive). For the same molecule, the GI50 (OVCAR-3) was > 100 µM (inactive), the GI50 (OVCAR-4) was > 100 µM (inactive) and the GI50 (OVCAR-5) was > 100 µM (inactive). For the same molecule, the GI50 (OVCAR-8) was > 100 µM (inactive), the GI50 (RPMI-8226) was > 100 µM (inactive) and the GI50 (RXF 393) was > 100 µM (inactive). For the same molecule, the GI50 (SF-268) was > 100 µM (inactive), the GI50 (SF-295) was > 100 µM (inactive) and the GI50 (SF-539) was > 100 µM (inactive). The GI50 (SK-MEL-28) was > 100 µM (inactive), the GI50 (SK-MEL-2) was > 100 µM (inactive) and the GI50 (SK-MEL-5) was > 100 µM (inactive). The GI50 (SK-OV-3) was > 100 µM (inactive), the GI50 (SN12C) was > 100 µM (inactive) and the GI50 (SNB-19) was > 100 µM (inactive). The GI50 (SNB-75) was 50.7 µM (inactive), the GI50 (SW-620) was > 100 µM (inactive) and the GI50 (T47D) was 41 µM (inactive). The GI50 (TK-10) was > 100 µM (inactive), the GI50 (U-251) was > 100 µM (inactive) and the GI50 (UACC-257) was > 100 µM (inactive). For the same molecule, the GI50 (UACC-62) was > 100 µM (inactive) and the GI50 (UO-31) was > 100 µM (inactive).
